Data from patent publication US20150343016A1, “CHEMICAL ENTITIES AND THERAPEUTIC USES THEREOF” (The Regents of the University of Colorado, a body corporate, priority 2010, published 2015).

Legend:
[1] = tested on: UM-SCC19 Head and Neck Cancer cell line; assay: MTT assay, Bouvardin with ionizing radiation, UM-SCC19 (pre-treated); assay type: cell-based, human; settings: UM-SCC19 cells
Method: “Combination Index” computation. Combination Indices were calculated using CalcuSyn software (Biosoft), which uses the method of Chou and Talalay. This method first computes drug-induced effect using the Hill Equation: where E is the measured effect; C is the drug concentration; Emax is the full range of drug effect, usually at or near 100%; IC50 is the drug concentration producing the median effect of 50%; and n is the curve shape parameter describing the steepness of the concentration-effect relationship. The Chou and Talalay method then linearizes the Hill Equation by logarithmic transformation as: where fu is the fraction of cells left unaffected after drug exposure, fa is the fraction of cells affected by the exposure, C is the drug concentration used, Cm is the concentration to achieve the median effect, and n is the curve shape parameter. Cm and n are equivalent to IC50 and n, respectively, in the Hill Equation. The values of n (obtained from the slope), nlog(Cm) (obtained from the absolute value of the intercept), and, therefore, Cm are obtained by plotting log(fu−1−1) versus log(C). These numbers are then used to compute the Combination Index (CI) according to the formula: CI=(D)1/(Dx)1+(D)2/(Dx)2 (26). (Dx)1 and (Dx)2 are the doses required to achieve a given effect level for each treatment, i.e. a specified value of Fraction Affected or Fa. (D)1 and (D)2 are the doses of each treatment in a given combination which gives the same Fa.
The growth inhibitory effects of Bouvardin with ionizing radiation (IR) were evaluated using a modified tetrazolium salt (MTT) assay. In the MTT assay, 1,000 to 2,000 viable cells were plated in 100 uL of growth medium in 96-well plates (Corning, Ithaca, N.Y.). Following an overnight incubation, drug was added in varying concentrations and the plates were irradiated on the same day (co-treatment) or 24 hr later (pre-treatment) and incubated for 6 to 7 days. The tetrazolium salt was added at a concentration of 0.4 mg/mL to each well following the 6- to 7-day treatment. The plates were incubated with the salt for 4 hours at 37° C. At 4 hours, the medium was aspirated off, leaving the dark blue formazan product at the bottom of the wells. The reduced MTT product was solubilized by adding […] of 0.2 N HCl in 75% isopropanol, 23% MilliQ water to each well. Thorough mixing was done using a Titertek multichannel pipetman. The absorbency of each well was measured using an automated plate reader (Molecular Devices, Sunnyvale, Calif.). All experiments were done in triplicate.
MTT assays were used to determine the effect of Bouvardin (concentrations in uM) in combination with ionizing radiation (in Gy, X-axis). FIG. 14 depicts CI values for Bouvardin and radiation on 3 cell lines. Combination Index data from 3 different Head and Neck Cancer cell lines are shown. Black dashed lines represent a CI value of 1. CI values below 1 indicate synergy. 1586 and UM-SCC19 were pre-treated whereas HN31 was treated on the same day.

FaDu cells = assay: CellTiter-Glo Luminescent Cell Viability Assay, Bouvardin with Taxol, FaDu; assay type: cell-based, human
Method: “Combination Index” computation. Combination Indices were calculated using CalcuSyn software (Biosoft), which uses the method of Chou and Talalay. This method first computes drug-induced effect using the Hill Equation: where E is the measured effect; C is the drug concentration; Emax is the full range of drug effect, usually at or near 100%; IC50 is the drug concentration producing the median effect of 50%; and n is the curve shape parameter describing the steepness of the concentration-effect relationship. The Chou and Talalay method then linearizes the Hill Equation by logarithmic transformation as: where fu is the fraction of cells left unaffected after drug exposure, fa is the fraction of cells affected by the exposure, C is the drug concentration used, Cm is the concentration to achieve the median effect, and n is the curve shape parameter. Cm and n are equivalent to IC50 and n, respectively, in the Hill Equation. The values of n (obtained from the slope), nlog(Cm) (obtained from the absolute value of the intercept), and, therefore, Cm are obtained by plotting log(fu−1−1) versus log(C). […]
The growth inhibitory effects of Bouvardin with Taxol were evaluated using CellTiter-Glo® Luminescent Cell Viability Assay (Promega G7570). […] Luminescence of each well was measured using an automated plate reader.

SMILES: COc1ccc(C[C@H]2C(=O)N[C@H](C)C(=O)N(C)[C@@H]3C(=O)N(C)[C@@H](Cc4ccc(O)c(c4)Oc4ccc(cc4)[C@H]3O)C(=O)N[C@@H](C)C(=O)N[C@H](C)C(=O)N2C)cc1 (stereo in doubt) [Bouvardin, bouvardin]
- Combination Index ([1]; Bouvardin 0.001 uM + 1 Gy IR): 13.885
- Fraction Affected ([1]; Bouvardin 0.001 uM + 1 Gy IR): 0.143
- Combination Index ([1]; Bouvardin 0.001 uM + 2 Gy IR): 2.245
- Fraction Affected ([1]; Bouvardin 0.001 uM + 2 Gy IR): 0.28
- Combination Index ([1]; Bouvardin 0.001 uM + 4 Gy IR): 1.023
- Fraction Affected ([1]; Bouvardin 0.001 uM + 4 Gy IR): 0.386
- Combination Index ([1]; Bouvardin 0.003 uM + 1 Gy IR): 5.143
- Fraction Affected ([1]; Bouvardin 0.003 uM + 1 Gy IR): 0.227
- Combination Index ([1]; Bouvardin 0.003 uM + 2 Gy IR): 1.22
- Fraction Affected ([1]; Bouvardin 0.003 uM + 2 Gy IR): 0.366
- Combination Index ([1]; Bouvardin 0.003 uM + 4 Gy IR): 0.627
- Fraction Affected ([1]; Bouvardin 0.003 uM + 4 Gy IR): 0.466
- Combination Index ([1]; Bouvardin 0.006 uM + 1 Gy IR): 1.696
- Fraction Affected ([1]; Bouvardin 0.006 uM + 1 Gy IR): 0.354
- Combination Index ([1]; Bouvardin 0.006 uM + 2 Gy IR): 0.762
- Fraction Affected ([1]; Bouvardin 0.006 uM + 2 Gy IR): 0.448
- Combination Index ([1]; Bouvardin 0.006 uM + 4 Gy IR): 0.82
- Fraction Affected ([1]; Bouvardin 0.006 uM + 4 Gy IR): 0.461
- Combination Index ([1]; Bouvardin 0.01 uM + 1 Gy IR): 1.561
- Fraction Affected ([1]; Bouvardin 0.01 uM + 1 Gy IR): 0.395
- Combination Index ([1]; Bouvardin 0.01 uM + 2 Gy IR): 0.694
- Fraction Affected ([1]; Bouvardin 0.01 uM + 2 Gy IR): 0.49
- Combination Index ([1]; Bouvardin 0.01 uM + 4 Gy IR): 0.619
- Fraction Affected ([1]; Bouvardin 0.01 uM + 4 Gy IR): 0.521
- Combination Index ([1]; Bouvardin 0.03 uM + 1 Gy IR): 1.414
- Fraction Affected ([1]; Bouvardin 0.03 uM + 1 Gy IR): 0.44
- Combination Index ([1]; Bouvardin 0.03 uM + 2 Gy IR): 0.777
- Fraction Affected ([1]; Bouvardin 0.03 uM + 2 Gy IR): 0.511
- Combination Index ([1]; Bouvardin 0.03 uM + 4 Gy IR): 0.848
- Fraction Affected ([1]; Bouvardin 0.03 uM + 4 Gy IR): 0.515
- Combination Index ([1]; Bouvardin 0.06 uM + 1 Gy IR): 1.587
- Fraction Affected ([1]; Bouvardin 0.06 uM + 1 Gy IR): 0.431
- Combination Index ([1]; Bouvardin 0.06 uM + 2 Gy IR): 1.482
- Fraction Affected ([1]; Bouvardin 0.06 uM + 2 Gy IR): 0.444
- Combination Index ([1]; Bouvardin 0.06 uM + 4 Gy IR): 1.01
- Fraction Affected ([1]; Bouvardin 0.06 uM + 4 Gy IR): 0.498
- Combination Index ([1]; Bouvardin 0.1 uM + 1 Gy IR): 2.102
- Fraction Affected ([1]; Bouvardin 0.1 uM + 1 Gy IR): 0.437
- Combination Index ([1]; Bouvardin 0.1 uM + 2 Gy IR): 1.027
- Fraction Affected ([1]; Bouvardin 0.1 uM + 2 Gy IR): 0.518
- Combination Index ([1]; Bouvardin 0.1 uM + 4 Gy IR): 1.691
- Fraction Affected ([1]; Bouvardin 0.1 uM + 4 Gy IR): 0.473
- Combination Index ([1]; Bouvardin 0.3 uM + 1 Gy IR): 1.313
- Fraction Affected ([1]; Bouvardin 0.3 uM + 1 Gy IR): 0.523
- Combination Index ([1]; Bouvardin 0.3 uM + 2 Gy IR): 1.347
- Fraction Affected ([1]; Bouvardin 0.3 uM + 2 Gy IR): 0.524
- Combination Index ([1]; Bouvardin 0.3 uM + 4 Gy IR): 1.052
- Fraction Affected ([1]; Bouvardin 0.3 uM + 4 Gy IR): 0.558
- Combination Index ([1]; Bouvardin 0.6 uM + 1 Gy IR): 1.704
- Fraction Affected ([1]; Bouvardin 0.6 uM + 1 Gy IR): 0.532
- Combination Index ([1]; Bouvardin 0.6 uM + 2 Gy IR): 1.546
- Fraction Affected ([1]; Bouvardin 0.6 uM + 2 Gy IR): 0.545
- Combination Index ([1]; Bouvardin 0.6 uM + 4 Gy IR): 1.251
- Fraction Affected ([1]; Bouvardin 0.6 uM + 4 Gy IR): 0.573
- Combination Index ([1]; Bouvardin 1 uM + 1 Gy IR): 13.885
- Fraction Affected ([1]; Bouvardin 1 uM + 1 Gy IR): 0.143
- Combination Index ([1]; Bouvardin 1 uM + 2 Gy IR): 2.245
- Fraction Affected ([1]; Bouvardin 1 uM + 2 Gy IR): 0.28
- Combination Index ([1]; Bouvardin 1 uM + 4 Gy IR): 1.023
- Fraction Affected ([1]; Bouvardin 1 uM + 4 Gy IR): 0.386
- Bouvardin concentration up to which synergy was seen when combined with taxol (FaDu cells; Det562 and FaDu (FIG. 18)): up to 0.3 μM
- interaction of Bouvardin with Taxol (FaDu cells; FaDu): synergy with Taxol over a wide range of concentrations
